Measurements published in patent US9199943B2, “2-(poly-substituted aryl)-6-amino-5-halo-4-pyrimidinecarboxylic acids and their use as herbicides” (Dow AgroSciences, LLC., priority 2006, dated 2015).

Columns and labels:
Type in all cases: in vivo
[1] = system: CHEAL = lambsquarter (Chenopodium album); assay: General preemergence herbicidal activity, lambsquarter; settings: Chenopodium album, pre-emergence, 480 h, pre-emergent, visual score after 20-22 days; for pest or weed control at 140 g/ha: 140 g ai/ha
Source text: (§1) Seeds of the desired test plant species were planted in a soil matrix prepared by mixing a loam soil (43 percent silt, 19 percent clay, and 38 percent sand, with a pH of about 8.1 and an organic matter content of about 1.5 percent) and sand in a 70 to 30 ratio. The soil matrix was contained in plastic pots with a surface area of 113 square centimeters. When required to ensure good germination and healthy plants, a fungicide treatment and/or other chemical or physical treatment was applied. A weighed amount, determined by the highest rate to be tested, of each test compound was placed in a 25 mL glass vial and was dissolved in 6 mL of a 97:3 v/v (volume/volume) mixture of acetone and DMSO to obtain concentrated stock solutions. […] The stock solutions obtained were diluted with 18 mL of a 0.1% v/v aqueous solution of Tween® 20 surfactant to obtain spray solutions containing the highest application rate. Additional application rates were obtained by serial dilution of 12 mL of the high rate solution into a solution containing 3 mL of 97:3 v/v mixture of acetone and DMSO and 9 mL of the 0.1% v/v aqueous solution of Tween® 20 surfactant to obtain 1⁄2×, 1⁄4×, 1⁄8× and 1/16× rates of the high rate. Compound requirements are based upon a 12 mL application volume at a rate of 187 L/ha. Formulated compounds were applied to the plant material with an overhead Mandel track sprayer equipped with a […] nozzles calibrated to deliver 187 L/ha over an application area of 0.503 square meters at a spray height of 18 inches (43 cm) above the soil surface. Control plants were sprayed in the same manner with the solvent blank. The treated pots and control pots were placed in a greenhouse maintained with an approximate 15 hour photoperiod and temperatures of about 23-29° C. during the day and 22-28° C. during the night. Nutrients and water were added on a regular basis and supplemental lighting was provided with overhead metal halide 1000-Watt lamps as necessary. The water was added by top-irrigation. After 20-22 days, the condition of the test plants that germinated and grew as compared with that of the untreated plants that emerged and grew was determined visually and scored on a scale of 0 to 100 percent where 0 corresponds to no injury and 100 corresponds to complete kill or no emergence.

[2] = system: ABUTH = velvetleaf (Abutilon theophrasti); assay: General preemergence herbicidal activity, velvetleaf; settings: Abutilon theophrasti, pre-emergence, 480 h, pre-emergent, visual score after 20-22 days; for pest or weed control at 140 g/ha: 140 g ai/ha
Source text: as §1

[3] = system: HELAN = sunflower (Helianthus annuus); assay: General preemergence herbicidal activity, sunflower; settings: Helianthus annuus, pre-emergence, 480 h, pre-emergent, visual score after 20-22 days; for pest or weed control at 140 g/ha: 140 g ai/ha
Source text: as §1

Compound | pest or weed control at 140 g/ha [1] [%] | pest or weed control at 140 g/ha [2] [%] | pest or weed control at 140 g/ha [3] [%] | pest or weed control at 280 g/ha ([1]; 280 g ai/ha) [%] | pest or weed control at 280 g/ha ([2]; 280 g ai/ha) [%] | pest or weed control at 280 g/ha ([3]; 280 g ai/ha) [%]
COC(=O)c1nc(-c2c(F)cc(Cl)c(OC)c2F)nc(N)c1Cl [Compound 2, 6-amino-5-chloro-2-(4-chloro-2,6-difluoro-3-methoxy-phenyl)pyrimidine-4-carboxylic acid methyl ester] | 90 | 100 | 20 | – | – | –
COC(=O)c1nc(-c2ccc(Cl)c(OC)c2Cl)nc(N)c1Cl [Compound 6, 6-Amino-5-chloro-2-(2,4-dichloro-3-methoxyphenyl)pyrimidine-4-carboxylic acid methyl ester] | 100 | 60 | 90 | – | – | –
COC(=O)c1nc(-c2ccc(Cl)c(C(F)F)c2F)nc(N)c1Cl [Compound 7, 6-Amino-5-chloro-2-(4-chloro-3-difluoromethyl-2-fluorophenyl)pyrimidine-4-carboxylic acid methyl ester] | 70 | 75 | 90 | – | – | –
COC(=O)c1nc(-c2ccc(Cl)c(OCC(F)F)c2F)nc(N)c1Cl [Compound 10, 6-Amino-5-chloro-2-[4-chloro-3-(2,2-difluoroethoxy)-2-fluorophenyl]-pyrimidine-4-carboxylic acid methyl ester] | – | – | – | 60 | 80 | 0
